We go through 37 compounds from PubChem BioAssay (NCI).

Several values for one entry are separate records, joined by “and”; a condition that tells them apart may be missing. Equal entries are not always repeated.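 96-well plates; 48 h exposure; 5 concentrations. Endpoints by linear interpolation between flanking doses. Not reached: highest tested concentration assigned. GI50 marks 50% less growth. TGI marks complete inhibition of growth.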

Test systems include DU-145 prostate; MDA-MB-435; MDA-N.
What all share (test): growth of human tumour cells (NCI), 48 h

Turning to `Cn1cc(-c2ccc3ncc(-c4ccc(CC(=O)Nc5cc(C(C)(C)C)nn5C)cc4)cc3c2)cn1`, the GI50 is 1.1 µM in the experiment with DU-145 prostate and 1.25 µM in the experiment with MDA-MB-435. In addition, the TGI in the experiment with DU-145 prostate and with MDA-MB-435 was over 20 µM each time.
On to `CCOC(=O)[C@@H](C)C[C@H](Cc1ccccc1)NC(=O)c1csc([C@@H](C[C@H](C(C)C)N(C)C(=O)CNC(=O)[C@H]2CCCCN2C)OC(C)=O)n1`, for which the GI50 with DU-145 prostate is 0.58 µM; with MDA-MB-435, 0.228 µM. For the same compound, the values for the TGI in the experiment with DU-145 prostate and in the experiment with MDA-MB-435 were over 9.17 µM and 0.801 µM, respectively.
As for `CN(C)CCCOc1ccc(NC2=C(Cl)C(=O)C(Nc3ccc(OCCCN(C)C)cc3)=C(Cl)C2=O)cc1`, the figures for the GI50 with DU-145 prostate and with MDA-MB-435 were 0.563 µM and 0.501 µM, respectively. The TGI with DU-145 prostate is 1.13 µM; in the experiment with MDA-MB-435, 1.05 µM.
As for `COC(=O)[C@]12CC[C@@H](C)[C@H](C)[C@@H]1C1=CC[C@@H]3[C@@]4(C)C(C=O)=C[C@@](C)(COS(C)(=O)=O)C4=CC[C@@]3(C)[C@]1(C)CC2`, in the experiment on DU-145 prostate, the GI50 was 0.317 µM and the TGI worked out at 1.06 µM. In addition, in the experiment on MDA-MB-435, the GI50 was 0.177 µM and the TGI was determined as 0.364 µM.
For `CN(C)CCNC(=O)Nc1ccc(N(C)c2ccnc(Nc3ccc(CS(C)(=O)=O)cc3)n2)cc1`, the GI50 in the experiment with DU-145 prostate and in the experiment with MDA-MB-435 was over 25 µM each time. For the same compound, the TGI in the experiment with DU-145 prostate and with MDA-MB-435 was over 25 µM throughout.
With `OCCNc1nc2ccccc2c2[nH]c3ccccc3c12`, in the experiment on DU-145 prostate, the GI50 is 0.659 µM and the TGI is 12.5 µM. Besides, in the experiment on MDA-MB-435, the GI50 is 0.528 µM and the TGI is 1.81 µM.
As for `Nc1ncnc2c1c(-c1ccc(Oc3ccccc3)cc1)nn2CC1SSCC1O` (stereo not drawn), in the experiment on DU-145 prostate, the GI50 was 4.15 µM and the TGI amounted to 9.01 µM. In the experiment on MDA-MB-435, the GI50 is 0.121 µM and the TGI worked out at 0.47 µM.
Turning to `S=C(Sc1ccc(Cl)cc1)Sc1ccc(Cl)cc1`, in the experiment on DU-145 prostate, the GI50 was 3.6 µM and the TGI amounted to 11.4 µM. Moreover, in the experiment on MDA-MB-435, the GI50 is 1.92 µM and the TGI stood at 4.9 µM.
With `Cc1cc(OC2OC(CO)C(O)C(O)C2O)ccc1O` (stereo not drawn), the TGI with MDA-MB-435 and in the experiment with MDA-N was over 100 µM throughout.
In the case of `OCC1OC(OC2(CO)OC(CO)C(O)C2O)C(O)C(O)C1O` (stereo not drawn), in the experiment on DU-145 prostate, the GI50 was over 100 µM and the TGI was over 100 µM. Also, in the experiment with MDA-MB-435, the GI50 was over 100 µM and the TGI was over 100 µM.
For `C/C(=C/CCC(C)[C@@H]1CC[C@]2(C)C3=C(CC[C@@]12C)[C@@]1(C)CCC(=O)C(C)(C)[C@@H]1CC3)C(=O)O` (stereo partly drawn), in the experiment with DU-145 prostate, the GI50 is 1.2 µM and the TGI was determined as 2.56 µM. Also, in the experiment on MDA-MB-435, the GI50 was 1.25 µM and the TGI worked out at 2.74 µM.
As to `C#COc1cccc(Nc2ncnc3cc(NC(=O)[C@@H](C)Cl)ccc23)c1`, the GI50 in the experiment on DU-145 prostate is 16.2 µM; in the experiment with MDA-MB-435 it was 1.65 µM. In addition, the TGI was over 62.5 µM in the experiment with DU-145 prostate and 4.66 µM in the experiment on MDA-MB-435.
On to `O=[N+]([O-])/C=C/c1ccc2ccccc2c1`, for which the TGI was over 35.9 µM in the experiment on DU-145 prostate and 4.58 µM in the experiment on MDA-MB-435.
On to `Nc1c(C(=O)Nc2ccccc2)sc2nc3c(cc12)C(=O)CCC3`, for which, in the experiment on DU-145 prostate, the GI50 was 0.328 µM and the TGI was 19.9 µM. In the experiment with MDA-MB-435, the GI50 was 0.139 µM and the TGI is over 100 µM.
The like results for `N#CN1CC[C@H](C(=O)Nc2ncc(-c3ccccc3)s2)C1` were, in that order, 0.814 µM, 2.04 µM, 0.273 µM and 1.73 µM.
For `Cc1ccc2ccc3c4ccccc4ccc3c2c1` the same measures were 34.6 µM, over 100 µM, 18.1 µM and 71 µM.
Turning to `CCN(CC)CCCC(Nc1c2ccc(Cl)cc2nc2ccc(OC)cc12)c1ccc(Cl)cc1` (stereo not drawn), in the experiment with DU-145 prostate, the GI50 was 1.52 µM and the TGI was found to be 3.03 µM. In the experiment with MDA-MB-435, the GI50 is 0.576 µM and the TGI turned out to be 1.93 µM.
For `C[C@]12CCc3nc(Nc4ccc(O)cc4)sc3C1=CC[C@@H]1[C@@H]2CC[C@]2(C)/C(=N/NC(N)=S)CC[C@@H]12` the same measures were 1.64 µM, 3.15 µM, 0.664 µM and 2.05 µM.
`O=C(Nc1ccc(-n2cc(-c3ccncc3)c(-c3ccc(Cl)c(O)c3)n2)cc1)c1cc(C(F)(F)F)cc(C(F)(F)F)c1`: the figures for the GI50 in the experiment on DU-145 prostate and with MDA-MB-435 were 12.3 µM and 4.11 µM, respectively. Besides, the figures for the TGI in the experiment with DU-145 prostate and in the experiment with MDA-MB-435 were 54.7 µM and 80.5 µM, respectively.
For the compound `COc1ccc([C@@]23Oc4cc(OC)cc(OC)c4[C@]2(O)[C@H](O)[C@H](C(=O)N(C)C)[C@H]3c2ccccc2)cc1`, in the experiment with DU-145 prostate, the GI50 is 0.0135 µM; the TGI is 0.0635 µM and 0.0375 µM and 0.219 µM. Moreover, the TGI with MDA-MB-435 is 0.0434 µM and 0.0188 µM and 0.15 µM.
On to `OCc1ccc(-c2ccc(-c3ccc(CO)o3)o2)o1`, for which, in the experiment on DU-145 prostate, the GI50 is over 62.4 µM and the TGI was over 100 µM. For the same compound, in the experiment on MDA-MB-435, the GI50 is over 100 µM and the TGI is over 100 µM.
In the case of `O=C(CCCCN1CCN(CCCCC(=O)Nc2ccccc2C#C/C=C\C#Cc2ccccc2C(F)(F)F)CC1)Nc1ccccc1C#C/C=C\C#Cc1ccccc1C(F)(F)F`, in the experiment on DU-145 prostate, the GI50 is 17.4 µM and the TGI was over 50 µM. In addition, in the experiment on MDA-MB-435, the GI50 is 11.7 µM and the TGI was found to be 22 µM.
In the case of `O=C1Nc2ccc(-c3cccnc3)cc2/C1=C/c1cc(Br)c(O)c(Br)c1`, in the experiment with DU-145 prostate, the GI50 is 6.28 µM and the TGI was over 25 µM. In addition, in the experiment with MDA-MB-435, the GI50 is 4.6 µM and the TGI was over 21.7 µM.
With `Cc1ccc(C(=O)Nc2ccc(Oc3cc4cnn(C)c4cc3-c3cn[nH]c3)c(F)c2)c(=O)n1-c1ccc(F)cc1`, the GI50 in the experiment with DU-145 prostate was over 50 µM; with MDA-MB-435, 3.23 µM. Moreover, the TGI in the experiment with DU-145 prostate and in the experiment with MDA-MB-435 was over 100 µM throughout.
`Nc1nc(Cl)c2ncn(Cc3ccc(C45CC6CC(CC(C6)C4)C5)c(OCc4cc(F)c(F)cc4F)c3)c2n1`: in the experiment with DU-145 prostate, the GI50 was 4.08 µM and the TGI worked out at 15.7 µM. In addition, in the experiment with MDA-MB-435, the GI50 is 2.98 µM and the TGI turned out to be 17.6 µM.
`COC(=O)c1ccc(NC(N)=NCCC(C)(C)c2ccc(C(F)(F)F)cc2)nc1`: in the experiment with DU-145 prostate, the GI50 is 3.44 µM and the TGI worked out at 13.9 µM. In the experiment with MDA-MB-435, the GI50 was 1.83 µM and the TGI came out at 4.16 µM.
In the case of `CO[C@H]1C(=O)[C@]2(C)[C@@H](OC)C[C@H]3OC[C@@]3(OC(C)=O)[C@H]2[C@H](OC(=O)c2ccccc2)[C@]2(O)C[C@H](OC(=O)[C@H](O)[C@@H](NC(=O)OC(C)(C)C)c3ccccc3)C(C)=C1C2(C)C`, in the experiment on DU-145 prostate, the GI50 is under 0.01 µM and the TGI is under 0.01 µM.
In the case of `Oc1cn(-c2ccc(Cl)cc2)nc1-c1n[nH]c(=S)n1-c1ccc(F)cc1`, in the experiment with DU-145 prostate, the GI50 is 22 µM and the TGI was over 100 µM. For the same compound, in the experiment with MDA-MB-435, the GI50 is 4.93 µM and the TGI is over 100 µM.
As to `CCc1ccc(Oc2c(-c3ccc(OCc4ccc(Cl)cc4)cc3O)nn(C)c2C(F)(F)F)cc1`, in the experiment with DU-145 prostate, the GI50 was 0.545 µM and the TGI is 2.27 µM. In the experiment on MDA-MB-435, the GI50 was 1.06 µM and the TGI was found to be 2.25 µM.
With `CCOC(=O)c1cn(C)c2c(OC)c3ccccc3c(OC)c2c1=O`, the GI50 with DU-145 prostate is 63 µM; with MDA-MB-435 it was 15.9 µM. The TGI in the experiment with DU-145 prostate is over 100 µM; with MDA-MB-435 it was 30 µM.
On to `CC(=O)Nc1cccc(C#Cc2cncnc2Nc2ccc(OCc3cccc(F)c3)c(Cl)c2)c1`, for which, in the experiment with DU-145 prostate, the GI50 was 10 µM and the TGI was over 25 µM. Besides, in the experiment on MDA-MB-435, the GI50 is 8.14 µM and the TGI is over 25 µM.
Turning to `O=C(O)c1ccccc1NCn1nc(-c2ccccc2O)oc1=S`, in the experiment with MDA-MB-435, the GI50 was over 100 µM and the TGI is over 100 µM.
For the compound `O=C1c2cccc3c(N4CCOCC4)ccc(c23)C(=O)N1CCN1CCN(CCCCCN2CCN(CCN3C(=O)c4cccc5c(N6CCOCC6)ccc(c45)C3=O)CC2)CC1`, in the experiment with DU-145 prostate, the GI50 is over 100 µM and the TGI is over 100 µM. Moreover, in the experiment on MDA-MB-435, the GI50 was over 100 µM and the TGI is over 100 µM.
In the case of `COc1ccc(-c2cnc(-c3ccncc3-c3cccc(OC)c3)o2)cc1`, in the experiment with DU-145 prostate, the GI50 is 0.0408 µM and the TGI was determined as 12.9 µM.
Take `CN(C)C1C(=O)C(C(N)=O)=C(O)C2(O)C(=O)C3=C(O)c4c(O)cccc4C(C)(O)C3CC12.[Cl][Sb]([Cl])[Cl]` (stereo not drawn): the GI50 was 4.33 µM in the experiment with DU-145 prostate and 2.91 µM with MDA-MB-435. Also, the values for the TGI in the experiment with DU-145 prostate and in the experiment with MDA-MB-435 were 14.9 µM and 10.4 µM, respectively.
For `CCOC(=O)c1cc(C(=O)c2ccc(OC)c(OC)c2)n2c1ccc1ccc3cccnc3c12`, in the experiment on DU-145 prostate, the GI50 is 3.45 µM and the TGI is over 100 µM.
As for `COc1cc2c(c3c1c(=O)c1ccccc1n3C)C=C([N+](=O)[O-])C(C)(C)O2`, the figures for the TGI with DU-145 prostate and in the experiment with MDA-MB-435 were over 100 µM and 0.577 µM, respectively.
